Values joined by “and” are separate entries in the source; they are usually repeats but may differ in a detail not shown here. Identical values can stand only once. Counter-ions that a name gives are not always drawn.
Assays:
[1] = test system: rat PCLS; design: method as in Starokozhko et al. [2017a]; conditions: in the presence of BAs, ref Starokozhko et al. [2017a]; cited from earlier work
[2] = test system: mouse PCLS; assay: LC–MS/MS quantification of intracellular BAs in mouse PCLS; format: cell-based; conditions: 48 h
Description: In short, freshly prepared PCLS were transferred to 12-well plates (Greiner bio-one GmbH, Austria), one slice per well. […] The composition of the human-like BA mixture was based on serum concentrations in mice and humans, measured by […]. […] A Shimadzu Nexera X2 HPLC system with binary pumps was interfaced to a Thermo Scientific TSQ Quantum ultra-triple quadrupole mass spectrometer. The BA analysis was performed by liquid chromatography-tandem mass spectrometry (LC-MS/MS). Xcalibur software version 2.0.7 by Thermo Scientific was applied in the data processing. […] Phenomenex, Utrecht, the Netherlands) reversed-phase column was used to separate the BAs. The column and autosampler temperatures were set at 55 °C and 4 °C, respectively. The injection volume was 15 μL, and the flow was set at 0.3 mL/min. […] Intracellular BA concentrations in PCLS were measured by LC-MS/MS. Sample preparation for these measurements of intracellular BAs was performed as follows. […] Hereafter, three slices for each condition were pooled in a 1.5-mL test tube, snap-frozen in liquid nitrogen and stored at -80 °C until analysis. […] Samples were subsequently centrifuged for 15 min at 15 °C and 13,000 rpm. The supernatant was collected in a new tube, and the samples were concentrated using a Concentrator plus centrifuge (Eppendorf, Germany). […] The concentrations of CA, CDCA, DCA, LCA, UDCA, HDCA, […] and GCA were determined with MRM-based LC-MS as described above.

[3] = test system: Collagen type 1a1 (Col1a1); assay: qRT-PCR gene expression in mouse PCLS: Col1a1; format: cell-based; conditions: 48 h
Description: (§1) In short, freshly prepared PCLS were transferred to 12-well plates (Greiner bio-one GmbH, Austria), one slice per well. Each well was filled with 1.3 mL pre-heated (37 ℃) and oxygenated (80%) Williams Medium E (1X, glutaMAX-1), which had been supplemented with 25 mM D-glucose monohydrate and 50 μg/ml Gentamicin (denoted as WME GG). […] The DMSO concentration used was below 0.5% in the incubation medium, equivalent to DMSO concentrations in solutions prepared by dilution of BA stock solutions with WME GG.
(§2) Three PCLS incubated under a given condition were pooled in a 1.5-mL Rnase-free test tube, snap-frozen in liquid nitrogen, and stored at – 80 °C until analysis. RNA was isolated using a FavorPrep Tissue Total RNA Mini Kit (Favorgen, Vienna, Austria). Subsequently, the RNA yield was quantified using a NanoDrop One instrument (Thermo Fisher Scientific, Massachusetts, USA). Isolated RNA was reverse-transcribed to cDNA using a cDNA synthesis kit (Reverse Transcription System, Promega, Benelux B.V.). The cDNA samples were subsequently loaded in the thermal cycler with a program set to 22 °C for 10 min, 42 °C for 15 min, and 95 °C for 5 min.
(§3) qRT-PCR was used to determine the relative mRNA expression levels for the mouse target genes: Bsep (Abcb11), Mrp2 (Abcc2), Mrp3 (Abcc3), Mrp4 (Abcc4), Ntcp (Slc10a1), Fxr (Nr1h4), Cyp7a1 (Cyp7a1), Collagen type 1a1 (Col1a1), Hsp47 (Serpinh1). Primer sequences of the genes tested are given in Supplementary Table S1. QRT-PCR was performed using, the dye, FastStart Universal SYBR Green Master Mix (Roche Diagnostics Netherlands B.V., Almere, the Netherlands) with the ViiA™ 7 Real-Time PCR System (Applied Biosystems, Bleiswijk, the Netherlands). The first cycle constituted 10 min at 95 °C, followed by 40 cycles of 15 s at 95 °C, 30 s at 60 °C and 30 s at 72 °C, followed by 1 cycle dissociation stage (15 s: 95 °C, 60 °C and 95 °C). A minimum of four mouse livers was used for each experiment, using three PCLS per condition. Samples were measured in duplicates. […] Results are expressed as log2(fold change).

[4] = test system: Fxr (Nr1h4); assay: qRT-PCR gene expression in mouse PCLS: Fxr; format: cell-based; conditions: 48 h, 30 µM CPZ in the presence of the humanized BA mixture
Description: as §1
as §2, with “The cDNA samples were subsequently loaded in the thermal cycler with a program set to 22 °C for 10 min, 42 °C for 15 min, and 95 °C for 5 min.” left out
qRT-PCR was used to determine the relative mRNA expression levels for the mouse target genes: Bsep (Abcb11), Mrp2 (Abcc2), Mrp3 (Abcc3), Mrp4 (Abcc4), Ntcp (Slc10a1), Fxr (Nr1h4), Cyp7a1 (Cyp7a1), Collagen type 1a1 (Col1a1), Hsp47 (Serpinh1). […] Samples were measured in duplicates. […] Results are expressed as log2(fold change).

[5] = test system: Ntcp (Slc10a1); assay: qRT-PCR gene expression in mouse PCLS: Ntcp; format: cell-based; conditions: 48 h, BAs present, highest concentration of CPZ, lowest concentration of GB
Description: as §1, §2, §3

[6] = with humanized BA mixture, CPZ 15 µM, CSA 1 µM, GB 25 µM
[7] = with humanized BA mixture, CPZ 30 µM, CSA 6 µM, GB 65 µM
[8] = without BA mixture, CPZ 15 µM, CSA 1 µM, GB 25 µM
[9] = without BA mixture, CPZ 30 µM, CSA 6 µM, GB 65 µM

SMILES: CN(C)CCCN1c2ccccc2Sc2ccc(Cl)cc21 [CPZ, Chlorpromazine hydrochloride]
- Concentration reaching severe toxicity [1]: 36 µM
- Effect on total intracellular BA concentration ([2]; in the absence of the BA mixture): increased the total intracellular concentration of BAs
- Intracellular CA concentration [2, 6]: 259.9±32.0 pmol/mg protein
- Intracellular CDCA concentration [2, 6]: 20.9±1.8 pmol/mg protein
- Intracellular DCA concentration [2, 6]: 87.7±14.0 pmol/mg protein
- Intracellular GCA concentration [2, 6]: 34.7±16.0 pmol/mg protein
- Intracellular HDCA concentration [2, 6]: 4.0±2.5 pmol/mg protein
- Intracellular LCA concentration [2, 6]: 3.4±1.3 pmol/mg protein
- Intracellular TCA concentration [2, 6]: 244.1±42.8 pmol/mg protein
- Intracellular TCDCA concentration [2, 6]: 10.1±0.2 pmol/mg protein
- Intracellular TDCA concentration [2, 6]: 14.1±0.8 pmol/mg protein
- Intracellular THDCA concentration [2, 6]: 9.4±1.4 pmol/mg protein
- Intracellular UDCA concentration [2, 6]: 34.2±4.0 pmol/mg protein
- Total intracellular concentration of 11 BAs [2, 6]: 722.5±95.4 pmol/mg protein
- Intracellular CA concentration [2, 7]: 314.1±29.7 pmol/mg protein
- Intracellular CDCA concentration [2, 7]: 41.3±6.4 pmol/mg protein
- Intracellular DCA concentration [2, 7]: 297 pmol/mg protein and 297.9±25.1 pmol/mg protein
- Intracellular GCA concentration [2, 7]: 26.1±3.5 pmol/mg protein
- Intracellular HDCA concentration [2, 7]: 13.6±3.9 pmol/mg protein
- Intracellular LCA concentration [2, 7]: 14.9±8.6 pmol/mg protein
- Intracellular TCA concentration [2, 7]: 351.2±67.0 pmol/mg protein
- Intracellular TCDCA concentration [2, 7]: 18.2±5.3 pmol/mg protein
- Intracellular TDCA concentration [2, 7]: 44.3±5.1 pmol/mg protein
- Intracellular THDCA concentration [2, 7]: 9.0±3.0 pmol/mg protein
- Intracellular UDCA concentration [2, 7]: 46.3±3.0 pmol/mg protein
- Effect on total intracellular BA concentration ([2]; with humanized BA mixture, vs control): intracellular accumulation of BAs
- Intracellular CA concentration [2, 8]: 0.3±0.0 pmol/mg protein
- Intracellular CDCA concentration [2, 8]: 0.2±0.2 pmol/mg protein
- Intracellular DCA concentration [2, 8]: 0.1±0.1 pmol/mg protein
- Intracellular GCA concentration [2, 8]: 0.0±0.0 pmol/mg protein
- Intracellular HDCA concentration [2, 8]: 0.0±0.0 pmol/mg protein
- Intracellular LCA concentration [2, 8]: 0.2±0.1 pmol/mg protein
- Intracellular TCA concentration [2, 8]: 0.8±0.1 pmol/mg protein
- Intracellular TCDCA concentration [2, 8]: 14.4±1.7 pmol/mg protein
- Intracellular TDCA concentration [2, 8]: 0.1±0.1 pmol/mg protein
- Intracellular THDCA concentration [2, 8]: 2.4±0.3 pmol/mg protein
- Intracellular UDCA concentration [2, 8]: 0.0±0.0 pmol/mg protein
- Total intracellular concentration of 11 BAs [2, 8]: 18.7±0.0 pmol/mg protein
- Intracellular CA concentration [2, 9]: 0.4±0.1 pmol/mg protein
- Intracellular CDCA concentration [2, 9]: 0.4±0.2 pmol/mg protein
- Intracellular DCA concentration [2, 9]: 0.1±0.1 pmol/mg protein
- Intracellular GCA concentration [2, 9]: 0.0±0.0 pmol/mg protein
- Intracellular HDCA concentration [2, 9]: 0.0±0.0 pmol/mg protein
- Intracellular LCA concentration [2, 9]: 0.3±0.2 pmol/mg protein
- Intracellular TCA concentration [2, 9]: 1.2±0.1 pmol/mg protein
- Intracellular TCDCA concentration [2, 9]: 25.0±2.2 pmol/mg protein
- Intracellular TDCA concentration [2, 9]: 0.1±0.1 pmol/mg protein
- Intracellular THDCA concentration [2, 9]: 5.2±0.7 pmol/mg protein
- Intracellular UDCA concentration [2, 9]: 0.0±0.0 pmol/mg protein
- Total intracellular concentration of 11 BAs [2, 9]: 32.7±0.0 pmol/mg protein
- Col1a1 gene expression ([3]; in the absence of BAs, highest concentration of CPZ): significant increase
- Col1a1 gene expression ([3]; in the presence of BAs, highest concentration (30 µM CPZ)): significantly increased
- Fxr gene expression [4]: small, but not significant, increase
- Ntcp gene expression [5]: increase the expression of Ntcp significantly
